In PubChem BioAssay AID192 (DTP/NCI, 2004):
Where “and” joins values, the source holds several entries; their conditions need not be identical. Equal values may be shown once. Inconclusive results and toxic doses are left out.

Test system: BDF1 mice, B16 melanoma ip, median survival T/C
Assay: NCI In Vivo Anticancer Drug Screen. Data for tumor model B16 Melanoma (intraperitoneal) in B6D2F1 (BDF1) mice
Details: endpoint: median survival time, higher = longer survival
Method in brief: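 Each result divides a survival or tumor-size measurement in the compound-treated group by the same measurement in the vehicle group.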

[1] = dose: 100.0 mg/kg/injection, schedule: Q01DX009 (ip), vehicle: Klucel (hydroxypropylcellulose) (HPC)
[2] = dose: 6.25 mg/kg/injection, schedule: Q01DX009 (ip), vehicle: saline
[3] = dose: 12.5 mg/kg/injection, schedule: Q01DX009 (ip), vehicle: saline
[4] = dose: 25.0 mg/kg/injection, schedule: Q01DX009 (ip), vehicle: saline
[5] = dose: 50.0 mg/kg/injection, schedule: Q01DX009 (ip), vehicle: saline
[6] = dose: 12.5 mg/kg/injection, schedule: Q01DX009 (ip), vehicle: saline with Tween-80
[7] = dose: 25.0 mg/kg/injection, schedule: Q01DX009 (ip), vehicle: saline with Tween-80
[8] = dose: 50.0 mg/kg/injection, schedule: Q01DX009 (ip), vehicle: saline with Tween-80
[9] = dose: 100.0 mg/kg/injection, schedule: Q01DX009 (ip), vehicle: saline with Tween-80
[10] = dose: 100.0 mg/kg/injection, schedule: Q04DX003 (ip), vehicle: Klucel (hydroxypropylcellulose) (HPC)
[11] = dose: 200.0 mg/kg/injection, schedule: Q04DX003 (ip), vehicle: Klucel (hydroxypropylcellulose) (HPC)
[12] = dose: 200.0 mg/kg/injection, schedule: Q01DX009 (ip), vehicle: Klucel (hydroxypropylcellulose) (HPC)
[13] = dose: 400.0 mg/kg/injection, schedule: Q01DX009 (ip), vehicle: Klucel (hydroxypropylcellulose) (HPC)
[14] = dose: 100.0 mg/kg/injection, schedule: Q01DX009 (ip), vehicle: saline

## CCNC1=C(N2CC2)C(=O)C(NCC)=C(N2CC2)C1=O
dose: 0.37 mg/kg/injection, schedule: Q01DX009 (ip), vehicle: saline
  T/C: 112 % of control
dose: 0.75 mg/kg/injection, schedule: Q01DX009 (ip), vehicle: saline
  T/C: 104 % of control and 116 % of control

## CC(C)(C)C1CCNC(=O)CC1 (stereo not given)
dose: 5.0 mg/kg/injection, schedule: Q01DX009 (ip), vehicle: Klucel (hydroxypropylcellulose) (HPC)
  T/C: 88 % of control
dose: 10.0 mg/kg/injection, schedule: Q01DX009 (ip), vehicle: Klucel (hydroxypropylcellulose) (HPC)
  T/C: 94 % of control
dose: 20.0 mg/kg/injection, schedule: Q01DX009 (ip), vehicle: Klucel (hydroxypropylcellulose) (HPC)
  T/C: 97 % of control

## Cc1cnc2c(NC(=O)CCl)nn(C)c2n1
dose: 50.0 mg/kg/injection, schedule: Q01DX009 (ip), vehicle: Klucel (hydroxypropylcellulose) (HPC)
  T/C: 103 % of control
[1]
  T/C: 101 % of control

## COc1cc(NCc2ccc3nc(N)nc(N)c3c2C)cc(OC)c1OC
dose: 0.62 mg/kg/injection, schedule: Q01DX009 (ip), vehicle: sodium bicarbonate
  T/C: 104 % of control
dose: 1.25 mg/kg/injection, schedule: Q01DX009 (ip), vehicle: sodium bicarbonate
  T/C: 101 % of control and 117 % of control
dose: 2.5 mg/kg/injection, schedule: Q01DX009 (ip), vehicle: sodium bicarbonate
  T/C: 107 % of control and 124 % of control
dose: 5.0 mg/kg/injection, schedule: Q01DX009 (ip), vehicle: sodium bicarbonate
  T/C: 124 % of control
dose: 10.0 mg/kg/injection, schedule: Q01DX009 (ip), vehicle: sodium bicarbonate
  T/C: 155 % of control
dose: 20.0 mg/kg/injection, schedule: Q01DX009 (ip), vehicle: sodium bicarbonate
  T/C: 150 % of control and 164 % of control

## CCN(CC)CCCC(C)Nc1c2ccc(C)cc2nc2ccc(OC)cc12 (stereo not given)
[2]
  T/C: 89 % of control
[3]
  T/C: 99 % of control and 114 % of control
[4]
  T/C: 124 % of control
[5]
  T/C: 122 % of control and 123 % of control

## ClC(Cl)(Cl)c1ccc(C(Cl)(Cl)Cl)cc1
dose: 50.0 mg/kg/injection, schedule: Q04DX003 (ip), vehicle: saline
  T/C: 102 % of control
dose: 100.0 mg/kg/injection, schedule: Q04DX003 (ip), vehicle: saline
  T/C: 95 % of control
dose: 200.0 mg/kg/injection, schedule: Q04DX003 (ip), vehicle: saline
  T/C: 95 % of control

## N#Cc1cn(C2OC(CO)C(O)C2O)c2ncnc(N)c12 (stereo not given)
dose: 0.06 mg/kg/injection, schedule: Q01DX009 (ip), vehicle: saline
  T/C: 120 % of control
dose: 0.12 mg/kg/injection, schedule: Q01DX009 (ip), vehicle: saline
  T/C: 118 % of control
dose: 0.25 mg/kg/injection, schedule: Q01DX009 (ip), vehicle: saline
  T/C: 105 % of control

## CC1(C)N=C(N)N=C(N)N1c1ccc(CCCCc2ccc(S(=O)(=O)F)cc2Cl)c(Cl)c1
dose: 1.56 mg/kg/injection, schedule: Q01DX009 (ip), vehicle: saline with Tween-80
  T/C: 120 % of control
dose: 3.13 mg/kg/injection, schedule: Q01DX009 (ip), vehicle: saline with Tween-80
  T/C: 120 % of control
dose: 3.13 mg/kg/injection, schedule: Q01DX009 (ip), vehicle: saline
  T/C: 117 % of control
dose: 6.25 mg/kg/injection, schedule: Q01DX009 (ip), vehicle: saline with Tween-80
  T/C: 176 % of control
dose: 9.4 mg/kg/injection, schedule: Q04DX003 (ip), vehicle: saline
  T/C: 120 % of control
[6]
  T/C: 158 % of control and 189 % of control
dose: 18.75 mg/kg/injection, schedule: Q04DX003 (ip), vehicle: saline
  T/C: 119 % of control
[7]
  T/C: 164 % of control and 200 % of control
[4]
  T/C: 158 % of control
[8]
  T/C: 182 % of control and 189 % of control
[5]
  T/C: 178 % of control
dose: 89.0 mg/kg/injection, schedule: Q04DX003 (ip), vehicle: saline with Tween-80
  T/C: 157 % of control
[9]
  T/C: 197 % of control
dose: 133.0 mg/kg/injection, schedule: Q04DX003 (ip), vehicle: saline with Tween-80
  T/C: 95 % of control
dose: 150.0 mg/kg/injection, schedule: Q04DX003 (ip), vehicle: saline
  T/C: 160 % of control

## Cc1ccc(Cl)cc1NC(=O)c1ccc(Cl)cc1Cl
[10]
  T/C: 95 % of control
[11]
  T/C: 102 % of control

## CC(=O)OC1CC(O)C23COC(O)C1(C)C2CC(O)C1(C)C3C(=O)C(O)C2(C)C(c3ccoc3)CC3OC321 (stereo not given)
dose: 0.13 mg/kg/injection, schedule: Q01DX009 (ip), vehicle: saline + alcohol
  T/C: 111 % of control
dose: 0.25 mg/kg/injection, schedule: Q01DX009 (ip), vehicle: saline + alcohol
  T/C: 102 % of control
dose: 0.5 mg/kg/injection, schedule: Q01DX009 (ip), vehicle: saline + alcohol
  T/C: 115 % of control
dose: 1.0 mg/kg/injection, schedule: Q01DX009 (ip), vehicle: saline + alcohol
  T/C: 98 % of control

## CCCCOC(=O)C1C(C(=O)OCCCC)C2(Cl)C(Cl)=C(Cl)C1(Cl)C2(Cl)Cl (stereo not given)
[1]
  T/C: 114 % of control
[12]
  T/C: 116 % of control
[13]
  T/C: 113 % of control

## CN1CCC(C=C2c3ccccc3CCc3ccccc32)C1 (stereo not given)
dose: 1.56 mg/kg/injection, schedule: Q01DX009 (ip), vehicle: saline
  T/C: 102 % of control
dose: 3.12 mg/kg/injection, schedule: Q01DX009 (ip), vehicle: saline
  T/C: 100 % of control
[4]
  T/C: 102 % of control

## CSCCC(C)C
[7]
  T/C: 95 % of control
[8]
  T/C: 89 % of control
dose: 50.0 mg/kg/injection, schedule: Q04DX003 (ip), vehicle: saline with Tween-80
  T/C: 110 % of control
[9]
  T/C: 95 % of control
dose: 100.0 mg/kg/injection, schedule: Q04DX003 (ip), vehicle: saline with Tween-80
  T/C: 97 % of control

## CCCCOC(OCCCC)C(C)=O
[1]
  T/C: 96 % of control
[12]
  T/C: 93 % of control
[13]
  T/C: 93 % of control

## Cc1ccc(S(=O)(=O)N=S2CCCC2)cc1
dose: 50.0 mg/kg/injection, schedule: Q04DX003 (ip), vehicle: Klucel (hydroxypropylcellulose) (HPC)
  T/C: 100 % of control
[10]
  T/C: 102 % of control
[11]
  T/C: 103 % of control
dose: 400.0 mg/kg/injection, schedule: Q04DX003 (ip), vehicle: Klucel (hydroxypropylcellulose) (HPC)
  T/C: 102 % of control

## N=C(N)c1ccc(OCCCOc2ccc(C(=N)N)cc2Br)c(Br)c1
[2]
  T/C: 97 % of control and 114 % of control
[3]
  T/C: 97 % of control and 111 % of control
[4]
  T/C: 97 % of control and 111 % of control

## CCCCCC#CC(=O)OC
[6]
  T/C: 102 % of control
[7]
  T/C: 86 % of control
[8]
  T/C: 86 % of control

## CCC(C)(C[NH-])C[NH-].[Cl][Pt+2][Cl]
dose: 0.5 mg/kg/injection, schedule: Q01DX009 (ip), vehicle: carboxymethylcellulose (CMC)
  T/C: 159 % of control
dose: 1.0 mg/kg/injection, schedule: Q01DX009 (ip), vehicle: carboxymethylcellulose (CMC)
  T/C: 180 % of control

## C[N+](C)(C)CC(=O)[O-]
[5]
  T/C: 108 % of control
[14]
  T/C: 101 % of control

## C=CC(CO)N1CC1 (stereo not given)
dose: 1.0 mg/kg/injection, schedule: Q01DX009 (ip), vehicle: other
  T/C: 119 % of control
dose: 2.0 mg/kg/injection, schedule: Q01DX009 (ip), vehicle: other
  T/C: 116 % of control
dose: 4.0 mg/kg/injection, schedule: Q01DX009 (ip), vehicle: other
  T/C: 111 % of control
dose: 6.25 mg/kg/injection, schedule: Q04DX003 (ip), vehicle: other
  T/C: 100 % of control
dose: 8.0 mg/kg/injection, schedule: Q01DX009 (ip), vehicle: other
  T/C: 113 % of control
dose: 12.5 mg/kg/injection, schedule: Q04DX003 (ip), vehicle: other
  T/C: 100 % of control
dose: 25.0 mg/kg/injection, schedule: Q04DX003 (ip), vehicle: other
  T/C: 96 % of control
dose: 50.0 mg/kg/injection, schedule: Q04DX003 (ip), vehicle: other
  T/C: 109 % of control

## Cc1cc(O)c2c(c1O)C(=O)c1cccc(O)c1C2=O
dose: 0.75 mg/kg/injection, schedule: Q01DX009 (ip), vehicle: Klucel (hydroxypropylcellulose) (HPC)
  T/C: 92 % of control
dose: 1.5 mg/kg/injection, schedule: Q01DX009 (ip), vehicle: Klucel (hydroxypropylcellulose) (HPC)
  T/C: 87 % of control

## CC(O)CN1CC(C)OC(C)C1 (stereo not given)
[14]
  T/C: 97 % of control
dose: 200.0 mg/kg/injection, schedule: Q01DX009 (ip), vehicle: saline
  T/C: 90 % of control
dose: 400.0 mg/kg/injection, schedule: Q01DX009 (ip), vehicle: saline
  T/C: 97 % of control
